{
  "source": "paper PMC7827406",
  "about": "“Structure–Activity Relationship (SAR) Study of Spautin-1 to Entail the Discovery of Novel NEK4 Inhibitors” (International Journal of Molecular Sciences, 2021)",
  "test_in_all_cases": "biochemical",
  "design_in_all_cases": "Eurofins KinaseProfiler full panel at Km ATP, residual kinase activity (%) relative to DMSO",
  "key": {"Abl(m)": {"target": "T1, Abl(m) (Mus musculus, UniProt P00520)", "T1 construct": "gene Abl1", "outline": "(§1)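 Two 10 µM single-concentration screens were run: a competition-binding screen, in which DNA-tagged kinase bound to immobilized ligands was quantified by qPCR, and a radiometric activity panel at Km ATP. Each is expressed as residual kinase activity (%).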"}, "Blk(h)": {"target": "Blk(h) (Homo sapiens, UniProt P51451)", "sequence (P51451 whole entry)": "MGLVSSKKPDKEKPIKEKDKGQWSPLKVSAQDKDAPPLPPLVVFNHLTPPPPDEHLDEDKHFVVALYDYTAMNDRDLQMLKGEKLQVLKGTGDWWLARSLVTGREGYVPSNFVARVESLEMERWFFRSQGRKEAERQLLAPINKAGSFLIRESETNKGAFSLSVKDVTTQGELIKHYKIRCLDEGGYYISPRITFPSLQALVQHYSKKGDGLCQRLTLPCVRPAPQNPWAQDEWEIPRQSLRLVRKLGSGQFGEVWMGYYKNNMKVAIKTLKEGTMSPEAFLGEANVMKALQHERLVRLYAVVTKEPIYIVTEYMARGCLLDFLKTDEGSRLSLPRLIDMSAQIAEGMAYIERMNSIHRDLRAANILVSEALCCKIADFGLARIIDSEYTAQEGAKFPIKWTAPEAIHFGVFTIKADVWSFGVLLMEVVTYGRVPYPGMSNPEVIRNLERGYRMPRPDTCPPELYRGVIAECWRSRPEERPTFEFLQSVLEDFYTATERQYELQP", "outline": "as §1"}, "GCK(h)": {"target": "T2, GCK(h) (Homo sapiens, UniProt Q12851)", "T2 construct": "gene MAP4K2", "T2 sequence (Q12851 1-820)": "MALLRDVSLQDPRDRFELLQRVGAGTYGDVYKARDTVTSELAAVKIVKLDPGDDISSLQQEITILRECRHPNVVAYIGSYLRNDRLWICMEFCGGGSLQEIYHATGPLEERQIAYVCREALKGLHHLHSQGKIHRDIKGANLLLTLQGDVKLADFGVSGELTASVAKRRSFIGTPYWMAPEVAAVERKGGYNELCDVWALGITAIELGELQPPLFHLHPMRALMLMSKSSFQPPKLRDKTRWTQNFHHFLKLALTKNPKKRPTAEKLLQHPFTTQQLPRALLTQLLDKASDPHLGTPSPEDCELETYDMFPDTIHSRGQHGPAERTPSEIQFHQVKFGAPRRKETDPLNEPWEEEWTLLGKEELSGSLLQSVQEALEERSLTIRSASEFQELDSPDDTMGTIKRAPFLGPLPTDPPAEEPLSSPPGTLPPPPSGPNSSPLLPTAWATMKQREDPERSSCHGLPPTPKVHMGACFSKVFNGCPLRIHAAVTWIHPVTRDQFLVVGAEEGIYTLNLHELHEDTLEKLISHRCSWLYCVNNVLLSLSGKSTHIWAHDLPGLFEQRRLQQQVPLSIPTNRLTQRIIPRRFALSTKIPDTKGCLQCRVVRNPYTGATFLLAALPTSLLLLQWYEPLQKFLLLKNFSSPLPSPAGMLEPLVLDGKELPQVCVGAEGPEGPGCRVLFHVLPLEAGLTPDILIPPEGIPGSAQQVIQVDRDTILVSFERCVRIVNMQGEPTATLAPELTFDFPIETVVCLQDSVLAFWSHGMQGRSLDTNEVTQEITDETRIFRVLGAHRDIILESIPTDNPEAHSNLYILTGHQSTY", "outline": "as §1"}, "PDGFRα(D842V)(h)": {"target": "T3, PDGFRα(D842V)(h) (Homo sapiens, UniProt P16234, D842V)", "T3 construct": "gene PDGFRA", "T3 sequence (P16234 whole entry D842V)": "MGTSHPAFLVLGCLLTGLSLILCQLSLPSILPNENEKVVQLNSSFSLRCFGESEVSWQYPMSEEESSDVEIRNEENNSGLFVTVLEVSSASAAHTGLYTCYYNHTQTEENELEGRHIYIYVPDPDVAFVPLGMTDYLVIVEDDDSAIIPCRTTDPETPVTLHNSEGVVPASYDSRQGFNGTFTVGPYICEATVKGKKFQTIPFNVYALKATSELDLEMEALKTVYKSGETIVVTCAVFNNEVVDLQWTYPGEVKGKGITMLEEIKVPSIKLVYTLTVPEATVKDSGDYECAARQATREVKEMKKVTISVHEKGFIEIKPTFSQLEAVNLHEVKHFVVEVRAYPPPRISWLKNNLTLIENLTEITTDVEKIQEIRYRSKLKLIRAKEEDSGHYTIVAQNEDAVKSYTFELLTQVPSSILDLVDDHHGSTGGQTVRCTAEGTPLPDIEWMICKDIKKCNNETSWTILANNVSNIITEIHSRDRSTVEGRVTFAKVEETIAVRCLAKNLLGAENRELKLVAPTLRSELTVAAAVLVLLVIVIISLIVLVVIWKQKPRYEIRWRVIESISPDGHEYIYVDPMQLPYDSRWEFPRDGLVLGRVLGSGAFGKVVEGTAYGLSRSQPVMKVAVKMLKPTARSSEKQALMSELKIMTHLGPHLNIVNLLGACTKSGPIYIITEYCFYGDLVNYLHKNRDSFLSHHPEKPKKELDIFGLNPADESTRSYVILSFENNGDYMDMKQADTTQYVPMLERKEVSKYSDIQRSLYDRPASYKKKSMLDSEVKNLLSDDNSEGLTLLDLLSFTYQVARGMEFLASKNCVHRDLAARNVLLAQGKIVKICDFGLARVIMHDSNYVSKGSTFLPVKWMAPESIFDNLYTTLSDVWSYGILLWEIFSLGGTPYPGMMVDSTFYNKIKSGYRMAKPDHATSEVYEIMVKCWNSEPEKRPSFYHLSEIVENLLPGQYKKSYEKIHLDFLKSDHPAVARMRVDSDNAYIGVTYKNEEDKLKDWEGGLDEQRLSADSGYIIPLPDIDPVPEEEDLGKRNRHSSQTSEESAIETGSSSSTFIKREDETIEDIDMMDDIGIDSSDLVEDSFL", "outline": "as §1"}, "Pim-1(h)": {"target": "T4, Pim-1(h) (Homo sapiens, UniProt P11309)", "T4 construct": "gene PIM1", "outline": "as §1"}, "Rsk1(r)": {"target": "T5, Rsk1(r) (Rattus norvegicus, UniProt Q63531)", "T5 construct": "gene Rps6ka1", "outline": "as §1"}, "SAPK2a(T106M)(h)": {"target": "T6, SAPK2a(T106M)(h) (Homo sapiens, UniProt Q16539, T106M)", "T6 construct": "gene MAPK14", "T6 sequence (Q16539 whole entry T106M)": "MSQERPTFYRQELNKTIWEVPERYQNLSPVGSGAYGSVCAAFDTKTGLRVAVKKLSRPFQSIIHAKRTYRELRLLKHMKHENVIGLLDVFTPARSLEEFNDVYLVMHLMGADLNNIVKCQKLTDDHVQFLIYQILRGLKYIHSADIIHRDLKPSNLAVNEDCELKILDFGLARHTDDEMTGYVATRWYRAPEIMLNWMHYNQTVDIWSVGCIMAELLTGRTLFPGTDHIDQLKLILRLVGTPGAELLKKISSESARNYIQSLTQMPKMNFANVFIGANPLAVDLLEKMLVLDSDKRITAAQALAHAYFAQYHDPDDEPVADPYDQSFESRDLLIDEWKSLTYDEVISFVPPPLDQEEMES", "outline": "as §1"}, "Tie2(R849W)(h)": {"target": "T7, Tie2(R849W)(h) (Homo sapiens, UniProt Q02763, R849W)", "T7 construct": "gene TEK", "T7 sequence (Q02763 whole entry R849W)": "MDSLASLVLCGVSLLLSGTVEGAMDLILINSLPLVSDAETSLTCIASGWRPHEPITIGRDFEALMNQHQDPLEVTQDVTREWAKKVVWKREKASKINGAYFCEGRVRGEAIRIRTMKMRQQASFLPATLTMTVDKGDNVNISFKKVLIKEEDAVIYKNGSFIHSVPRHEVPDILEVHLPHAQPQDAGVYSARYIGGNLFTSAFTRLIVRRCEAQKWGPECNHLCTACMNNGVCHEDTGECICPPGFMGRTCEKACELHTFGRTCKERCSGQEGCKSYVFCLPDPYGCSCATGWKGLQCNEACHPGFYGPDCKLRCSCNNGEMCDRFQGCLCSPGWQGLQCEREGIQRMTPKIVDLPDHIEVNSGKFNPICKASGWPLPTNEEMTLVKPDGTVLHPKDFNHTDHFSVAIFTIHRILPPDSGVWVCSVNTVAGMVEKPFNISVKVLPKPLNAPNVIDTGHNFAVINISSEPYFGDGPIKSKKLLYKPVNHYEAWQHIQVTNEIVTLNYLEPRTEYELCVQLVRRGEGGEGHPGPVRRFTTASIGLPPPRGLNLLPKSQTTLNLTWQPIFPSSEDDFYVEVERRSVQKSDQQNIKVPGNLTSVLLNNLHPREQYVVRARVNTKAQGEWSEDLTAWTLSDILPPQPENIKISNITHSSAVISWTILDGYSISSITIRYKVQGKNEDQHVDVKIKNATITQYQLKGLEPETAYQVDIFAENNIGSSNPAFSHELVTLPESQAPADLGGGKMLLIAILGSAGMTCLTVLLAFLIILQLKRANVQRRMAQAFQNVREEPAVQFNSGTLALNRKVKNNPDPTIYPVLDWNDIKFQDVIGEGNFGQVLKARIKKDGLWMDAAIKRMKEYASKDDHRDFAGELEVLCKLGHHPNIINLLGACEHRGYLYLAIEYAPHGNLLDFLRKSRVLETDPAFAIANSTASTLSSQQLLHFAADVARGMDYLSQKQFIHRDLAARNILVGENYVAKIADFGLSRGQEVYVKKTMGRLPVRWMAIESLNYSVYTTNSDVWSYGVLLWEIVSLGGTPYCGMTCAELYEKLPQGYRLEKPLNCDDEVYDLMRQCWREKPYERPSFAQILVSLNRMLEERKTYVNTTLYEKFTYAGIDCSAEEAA", "outline": "as §1"}, "[1]": {"settings": "read-out: Residual activity (%) 5ay"}, "[2]": {"settings": "read-out: Residual activity (%) Spautin-1 5aa"}, "[3]": {"settings": "read-out: Residual activity (%) 5at"}, "[4]": {"settings": "read-out: Residual activity (%) 5as"}},
  "note": "Read-outs that look alike come from different tables or passages of the source.",
  "data": [
    {"smiles": "COc1ccc2ncnc(Nc3cccc(F)c3)c2c1", "note": "[5ay, N-(3-Fluorophenyl)-6-Methoxy-4-Quinazolinamine]", "values": [
      {"measurement": "remaining activity at 10 µM", "setting": "Abl(m); [1]", "value": 56, "unit": "%"},
      {"measurement": "remaining activity at 10 µM", "setting": "Blk(h); [1]", "value": 85, "unit": "%"},
      {"measurement": "remaining activity at 10 µM", "setting": "GCK(h); [1]", "value": 60, "unit": "%"},
      {"measurement": "remaining activity at 10 µM", "setting": "PDGFRα(D842V)(h); [1]", "value": 50, "unit": "%"},
      {"measurement": "remaining activity at 10 µM", "setting": "Pim-1(h); [1]", "value": 39, "unit": "%"},
      {"measurement": "remaining activity at 10 µM", "setting": "Rsk1(r); [1]", "value": 129, "unit": "%"},
      {"measurement": "remaining activity at 10 µM", "setting": "SAPK2a(T106M)(h); [1]", "value": 121, "unit": "%"},
      {"measurement": "remaining activity at 10 µM", "setting": "Tie2(R849W)(h); [1]", "value": 110, "unit": "%"}
    ]},
    {"smiles": "Fc1ccc(CNc2ncnc3ccc(F)cc23)cc1", "note": "[5aa, 6-Fluoro-N-(4-fluorobenzyl)-4-Quinazolinamine]", "values": [
      {"measurement": "remaining activity at 10 µM", "setting": "Abl(m); [2]", "value": 90, "unit": "%"},
      {"measurement": "remaining activity at 10 µM", "setting": "Blk(h); [2]", "value": 97, "unit": "%"},
      {"measurement": "remaining activity at 10 µM", "setting": "GCK(h); [2]", "value": 109, "unit": "%"},
      {"measurement": "remaining activity at 10 µM", "setting": "PDGFRα(D842V)(h); [2]", "value": 114, "unit": "%"},
      {"measurement": "remaining activity at 10 µM", "setting": "Pim-1(h); [2]", "value": 66, "unit": "%"},
      {"measurement": "remaining activity at 10 µM", "setting": "Rsk1(r); [2]", "value": 117, "unit": "%"},
      {"measurement": "remaining activity at 10 µM", "setting": "SAPK2a(T106M)(h); [2]", "value": 95, "unit": "%"},
      {"measurement": "remaining activity at 10 µM", "setting": "Tie2(R849W)(h); [2]", "value": 91, "unit": "%"}
    ]},
    {"smiles": "Fc1ccc2ncnc(NCCc3ccc(Cl)cc3)c2c1", "note": "[5at, N-[2-(4-Chlorophenyl)Ethyl]-6-Fluoro-4-Quinazolinamine]", "values": [
      {"measurement": "remaining activity at 10 µM", "setting": "Abl(m); [3]", "value": 99, "unit": "%"},
      {"measurement": "remaining activity at 10 µM", "setting": "Blk(h); [3]", "value": 91, "unit": "%"},
      {"measurement": "remaining activity at 10 µM", "setting": "GCK(h); [3]", "value": 87, "unit": "%"},
      {"measurement": "remaining activity at 10 µM", "setting": "PDGFRα(D842V)(h); [3]", "value": 86, "unit": "%"},
      {"measurement": "remaining activity at 10 µM", "setting": "Pim-1(h); [3]", "value": 70, "unit": "%"},
      {"measurement": "remaining activity at 10 µM", "setting": "Rsk1(r); [3]", "value": 113, "unit": "%"},
      {"measurement": "remaining activity at 10 µM", "setting": "SAPK2a(T106M)(h); [3]", "value": 103, "unit": "%"},
      {"measurement": "remaining activity at 10 µM", "setting": "Tie2(R849W)(h); [3]", "value": 90, "unit": "%"}
    ]},
    {"smiles": "Fc1ccc(CCNc2ncnc3ccc(F)cc23)cc1", "note": "[5as, 6-Fluoro-N-[2-(4-Fluorophenyl)Ethyl]-4-Quinazolinamine]", "values": [
      {"measurement": "remaining activity at 10 µM", "setting": "Abl(m); [4]", "value": 83, "unit": "%"},
      {"measurement": "remaining activity at 10 µM", "setting": "Blk(h); [4]", "value": 100, "unit": "%"},
      {"measurement": "remaining activity at 10 µM", "setting": "GCK(h); [4]", "value": 88, "unit": "%"},
      {"measurement": "remaining activity at 10 µM", "setting": "PDGFRα(D842V)(h); [4]", "value": 92, "unit": "%"},
      {"measurement": "remaining activity at 10 µM", "setting": "Pim-1(h); [4]", "value": 73, "unit": "%"},
      {"measurement": "remaining activity at 10 µM", "setting": "Rsk1(r); [4]", "value": 130, "unit": "%"},
      {"measurement": "remaining activity at 10 µM", "setting": "SAPK2a(T106M)(h); [4]", "value": 115, "unit": "%"},
      {"measurement": "remaining activity at 10 µM", "setting": "Tie2(R849W)(h); [4]", "value": 98, "unit": "%"}
    ]}
  ]
}
